Laboratory results taken from ChEMBL document CHEMBL1143894, “Synthetic derivatives of the alpha- and beta-amyrin triterpenes and their antinociceptive properties” (2008).

Columns and labels:
Mus musculus [1] = experiment: Antinociceptive effect in sc dosed Swiss mouse assessed as inhibition of acetic acid-induced visceral pain; format: functional; conditions: read-out: ID50 (the source's name)
Mus musculus [2] = experiment: Antinociceptive effect in Swiss mouse assessed as inhibition of acetic acid-induced visceral pain at 0.0001 to 30 mg/kg, ip relative to morphine; format: functional; conditions: dose mg/kg 0.0001-30; route intraperitoneal

| SMILES | ED50 (Mus musculus [1]) | Inhibition (Mus musculus [2]) |
| --- | --- | --- |
| CC(=O)Oc1ccccc1C(=O)O [ASPIRIN] | 24 mg/kg | 83% |
| CN1CC[C@]23c4c5ccc(O)c4O[C@H]2[C@@H](O)C=C[C@H]3[C@H]1C5 [MORPHINE] | 0.67 mg/kg |  |
